Patent US20250223560A1, “NOX4 INHIBITOR COMPOSITIONS AND METHODS FOR REGENERATION OF DYSTROPHIC MUSCLE” (FULCRUM THERAPEUTICS, INC., priority 2022, published 2025)
Read-outs that look alike come from different tables or passages of the source.

Legend:
myoblast-FAP co-cultures = conditions: 0.1 uM, 3 days of differentiation, vs DMSO
Text: The impact of NOX4 inhibition on myogenic differentiation in myoblast-FAP co-cultures was investigated using primary myoblasts isolated from wild-type, uninjured mouse muscles and FAPs isolated from cardiotoxin-injured muscles of ROSA26-tdTomato mice (such mice contain cells that constitutively express the tdTomato fluorescent marker). […] Following 3 days of differentiation, cells were fixed in 4% paraformaldehyde (PFA) and stained for myosin heavy chain (MHC; marker of myogenic differentiation).

cells = conditions: as described in the art; cited from earlier work
[1] = test system: Bone Marrow Derived Mesenchymal Stem Cells, human (BM-MSC); myofibroblast content; assay: Myofibroblast reduction phenotype in TGF-beta-1 fibrogenic differentiation culture (high-content imaging); format: cell-based
Procedure: (§1) Bone Marrow Derived Mesenchymal Stem Cells, human (BM-MSC, ATCC PCS-500-012) were cultured in medium composed of Mesenchymal Stem Cell Basal Medium foe Adipose, Umbilcal and Bone Marrow-derived MSCs (ATCC PCS-400030 and Mesenchymal Stem Cell Growth for Bone Marrow-derived MSCs (ATCC PCS-500-041). Cells were seeded at a density of 15,000 cells/well in a 96-well format.
(§2) To induce fibrogenic differentiation BM-MSCs were cultured in a medium composed by Dulbecco's Modified Eagle Medium, 2% horse serum (HS) (Sigma H1270) and 5-10 ng/ml TGF-beta-1 (PreproTech 100-21). Cells were cultured in basal media for 2 days before being switched to fibrogenic differentiation media for 5 days, after which they were taken down for downstream assays. Compound treatment was added when media was switched to fibrogenic differentiation media, cells were treated with 0.1% DMSO if not receiving compound.
(§3) Cells were fixed in 4% PFA for 10 min at RT. Fixed cells were washed three times in 1×PBS and incubated in permeabilization solution (0.5% Triton X-100 in 1×PBS) for 10 min. Unspecific binding were saturated by incubating samples in blocking solution (5% donkey serum in 1×PBS) for 1 h. The cells were incubated at RT for 1 hour with gentle shaking in the presence of primary antibody against, alpha-smooth muscle actin (1:1000, Sigma™ A5228). The cells were washed three times with 0.05% Tween-20 in 1×PBS and incubated, for 1 hour at RT, with host-specific secondary antibodies in addition to counterstaining for Alexa Fluor Plus 750 Phalloidin (1:2000, Invitrogen™, A30105) and DAPI (1:2000). Primary and secondary antibodies were diluted according to the manufacturer's recommendations in blocking solution+0.1% Triton X-100. Finally, the cells were washed three times with 0.05% Tween-20 in 1×PBS, washed twice with 1×PBS and stored at 4° C. Images were acquired on a Thermo Scientific™ CellInsight™ CX7LED high content analysis (HCA) imaging instrument using a 10× objective. Nine fields per well were captured for quantification.
Columbus™ software (version 2.9.1, Perkin Elmer®) was used for analysis of acquired images. A custom analysis pipeline was constructed to quantify the percentage of myofibroblasts within the well. First, nuclei were segmented using “Method B” and intensity and morphology properties were calculated using standard settings. Second, viable nuclei were identified by gating on nuclei intensity, area, and roundness of the segmented objects. Next, a region of interest was then defined around the selected viable nuclei by expanding the outer boarder by […]. STAR morphology and SER texture properties were calculated within the region of interest for the alpha-smooth muscle actin and phalloidin channels using the following parameters: profile width=4 px, scale=1 px, Kernel normalization. The calculated morphology and texture properties were used to train a linear classifier consisting of two classes, myofibroblasts and mesenchymal stem cells, by selecting >100 objects in each negative control (DMSO) and positive control (fibrogenic differentiation media) conditions. The linear classifier was then applied to the untrained test wells using a batch analysis to calculate the percentage of myofibroblasts within each image using a formula output (myofibroblasts:number of objects/viable nuclei:number of objects)*100. Results were averaged across the nine fields imaged per well.
The initial six NOX4 inhibitors were assessed in replicate experiments for both potency of myofibroblast reducing activity and an associated IC50 for the myofibroblast reduction phenotype was determined (Table 1).

[2] = as described; cited from earlier work
mesenchymal stem cells = assay: Phalloidin (F-actin) / alpha-SMA staining of treated mesenchymal stem cells; format: cell-based, human; conditions: for phalloidin (F-actin) staining / α-SMA immunofluorescence and phalloidin (F-actin) staining: 1 μM; for α-SMA immunofluorescence and phalloidin (F-actin) staining: FIG. 15
Procedure: as §1, §2, §3

NOX4 = target: T1, NOX4 (Homo sapiens, UniProt Q9NPH5); conditions: cited from earlier work
T1 sequence (Q9NPH5 1-578): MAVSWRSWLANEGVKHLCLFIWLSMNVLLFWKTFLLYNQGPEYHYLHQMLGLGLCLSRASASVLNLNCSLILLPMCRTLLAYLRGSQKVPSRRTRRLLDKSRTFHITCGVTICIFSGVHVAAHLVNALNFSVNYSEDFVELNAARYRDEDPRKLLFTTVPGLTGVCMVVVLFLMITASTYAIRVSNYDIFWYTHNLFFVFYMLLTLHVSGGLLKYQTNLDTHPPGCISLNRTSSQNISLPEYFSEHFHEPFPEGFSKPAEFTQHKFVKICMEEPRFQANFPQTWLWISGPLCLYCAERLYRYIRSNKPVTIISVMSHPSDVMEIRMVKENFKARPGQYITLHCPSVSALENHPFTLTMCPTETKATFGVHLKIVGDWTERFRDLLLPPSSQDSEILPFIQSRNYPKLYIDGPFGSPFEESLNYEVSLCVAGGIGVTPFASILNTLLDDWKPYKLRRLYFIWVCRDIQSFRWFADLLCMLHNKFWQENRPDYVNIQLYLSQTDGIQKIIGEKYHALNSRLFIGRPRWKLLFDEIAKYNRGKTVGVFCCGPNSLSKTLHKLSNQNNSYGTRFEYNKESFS
T1 sequence (P13498 1-195 partner): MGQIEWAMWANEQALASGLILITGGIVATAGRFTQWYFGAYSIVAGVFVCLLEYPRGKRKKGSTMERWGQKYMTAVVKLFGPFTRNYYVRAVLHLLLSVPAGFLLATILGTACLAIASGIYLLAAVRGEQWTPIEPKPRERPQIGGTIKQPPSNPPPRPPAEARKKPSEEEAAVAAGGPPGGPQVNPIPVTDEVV

[3] = Homo sapiens, BMMSC, first experiment, read-out: IC50 Phenotype (myofibroblast reduction)
[4] = Homo sapiens, BMMSC, replicate experiment, read-out: IC50 Phenotype Replicate
[5] = reported value, read-out: Reported Potency, IC50

## c1ccc2c(c1)[I+]c1ccccc1-2 [DPI, diphenyleneiodonium chloride]
myoblast-FAP co-cultures
  MHC-positive myocytes (number of cells per mm^2): statistically significant increase
  myogenic differentiation of myoblasts (MHC staining): significantly increased

## CCOC(=O)c1c(NC(=O)CN2CCN(C(=O)c3ccco3)CC2)sc2c1CCC2 [FTX7971]
cells
  concentration of described activity in cells: about 5 μM
[1]; [3]
  IC50: 4030 nM
[1]; [4]
  IC50: 5210 nM
[2]
  oral bioavailability: orally bioavailable

## c1ccc(Cn2nnc3c(Sc4nc5ccccc5o4)ncnc32)cc1 [FTX7972]
[1]; [3]
  IC50: 889 nM
[1]; [4]
  IC50: 898 nM

## CCCc1c(-c2ccccc2)nn(-c2ccccn2)c1O [FTX7973]
[1]; first experiment, unit nm [sic], read-out: IC50 Phenotype (myofibroblast reduction)
  IC50: 638 nM
[1]; replicate experiment, unit nm [sic], read-out: IC50 Phenotype Replicate
  IC50: 781 nM

## CC(CNS(=O)(=O)c1ccc(C(F)(F)F)cc1)N1CCc2ccccc21 (stereo not drawn) [FTX7974]
Mesenchymal stem cells
  phalloidin (F-actin) staining: significant phalloidin staining
  α-SMA immunofluorescence and phalloidin (F-actin) staining: exhibited both α-SMA immunofluorescence and phalloidin (F-actin) staining
[1]; [3]
  IC50: 357 nM
[1]; [4]
  IC50: 333 nM
NOX4; [5]
  IC50: 2000 nM

## Cc1ccccc1CCNS(=O)(=O)c1c(Cl)cc(Br)cc1Cl [FTX7981]
Mesenchymal stem cells
  α-SMA immunofluorescence and phalloidin (F-actin) staining: exhibited both α-SMA immunofluorescence and phalloidin (F-actin) staining
[1]; [3]
  IC50: 253 nM
[1]; [4]
  IC50: 342 nM
NOX4; reported, read-out: IC50 NOX4
  IC50: 300 nM

## Cc1ccc(N2CCN(Cc3nc(N)nc(Nc4ccc(C)c(C)c4)n3)CC2)cc1 [FTX7983]
Mesenchymal stem cells
  α-SMA immunofluorescence and phalloidin (F-actin) staining: exhibited both α-SMA immunofluorescence and phalloidin (F-actin) staining
[1]; Homo sapiens, BMMSC, first experiment, unit nm [sic], read-out: IC50 Phenotype (myofibroblast reduction)
  IC50: 331 nM
[1]; Homo sapiens, BMMSC, replicate experiment, unit nm [sic], read-out: IC50 Phenotype Replicate
  IC50: 401 nM

## O=c1c2c3n(c(=O)cc2[nH]n1-c1ccccc1Cl)CCCN(Cc1ccccc1)C3 [FTX7990]
[1]; [3]
  IC50: 158 nM
[1]; [4]
  IC50: 149 nM
[1]; treated cells in culture
  reduction of myofibroblast content (concentration-response): dose-dependent reduction of myofibroblast content
[2]
  oral bioavailability: orally bioavailable
NOX4; reported value, read-out: Reported Potency, Ki
  Ki: 70 nM

## COc1cc(NC(=O)c2ccc3cc(Cl)ccc3c2)c(C(=O)O)cc1C#N [FTX7995]
Mesenchymal stem cells; 10 nM
  phalloidin staining: exhibited phalloidin staining
Mesenchymal stem cells; 100 nM and 1 μM
  phalloidin staining: enhanced phalloidin staining
Mesenchymal stem cells
  phalloidin (F-actin) staining: significant phalloidin staining
  α-SMA immunofluorescence and phalloidin (F-actin) staining: exhibited both α-SMA immunofluorescence and phalloidin (F-actin) staining
[1]; [3]
  IC50: 8.8 nM
[1]; [4]
  IC50: 10.9 nM
NOX4; [5]
  IC50: 2 nM

## Cc1c2c(=O)n(-c3ccccc3Cl)[nH]c2cc(=O)n1Cc1ccccn1 [FTX8018]
[1]; [3]
  IC50: 149 nM
[2]
  oral bioavailability: orally bioavailable
